Measurements reported in PubChem BioAssay AID248 (DTP/NCI, 2004).
Where “and” joins values, the source holds several entries; their conditions need not be identical. Equal entries are not always repeated. Toxic doses and inconclusive results are not listed. Cut-off read from the data, not from the text of the source: active = T/C of 150% or more; inactive = T/C below 125%. Peptide text beside a SMILES is read from it. * marks the point of attachment. Boc = CC(C)(C)OC(=O)*

System: L1210 leukemia ip in BDF1 mice, survival T/C
Test: NCI In Vivo Anticancer Drug Screen. Data for tumor model L1210 Leukemia (intraperitoneal) in B6D2F1 (BDF1) mice
Conditions: endpoint: mean survival time, higher = longer survival
How it was run: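 Read-out is survival time, reported as the treated-group measurement over the vehicle-control measurement.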

[1] = dose: 100.0 mg/kg/injection, schedule: Q01DX009 (ip), vehicle: Klucel (hydroxypropylcellulose) (HPC)
[2] = dose: 100.0 mg/kg/injection, schedule: Q04DX003 (ip), vehicle: Klucel (hydroxypropylcellulose) (HPC)
[3] = dose: 200.0 mg/kg/injection, schedule: Q01DX009 (ip), vehicle: Klucel (hydroxypropylcellulose) (HPC)
[4] = dose: 200.0 mg/kg/injection, schedule: Q04DX003 (ip), vehicle: Klucel (hydroxypropylcellulose) (HPC)
[5] = dose: 400.0 mg/kg/injection, schedule: Q01DX009 (ip), vehicle: Klucel (hydroxypropylcellulose) (HPC)
[6] = dose: 400.0 mg/kg/injection, schedule: Q04DX003 (ip), vehicle: Klucel (hydroxypropylcellulose) (HPC)
[7] = dose: 75.0 mg/kg/injection, schedule: Q01DX001 (ip), vehicle: saline
[8] = dose: 150.0 mg/kg/injection, schedule: Q01DX001 (ip), vehicle: saline
[9] = dose: 75.0 mg/kg/injection, schedule: Q01DX001 (ip), vehicle: carboxymethylcellulose (CMC)
[10] = dose: 150.0 mg/kg/injection, schedule: Q01DX001 (ip), vehicle: carboxymethylcellulose (CMC)
[11] = dose: 100.0 mg/kg/injection, schedule: Q04DX003 (ip), vehicle: saline
[12] = dose: 12.5 mg/kg/injection, schedule: Q04DX003 (ip), vehicle: Klucel (hydroxypropylcellulose) (HPC)
[13] = dose: 25.0 mg/kg/injection, schedule: Q04DX003 (ip), vehicle: Klucel (hydroxypropylcellulose) (HPC)
[14] = dose: 50.0 mg/kg/injection, schedule: Q04DX003 (ip), vehicle: Klucel (hydroxypropylcellulose) (HPC)
[15] = dose: 100.0 mg/kg/injection, schedule: Q01DX001 (ip), vehicle: saline

Measured: T/C

CNc1ccccc1[N+](=O)[O-]
inactive: [1] 100 % of control | dose: 100.0 mg/kg/injection, schedule: Q01DX009 (ip), vehicle: other 104 % of control | [2] 96 % of control | dose: 100.0 mg/kg/injection, schedule: Q04DX003 (ip), vehicle: other 107 % of control | [3] 98 % of control | dose: 200.0 mg/kg/injection, schedule: Q01DX009 (ip), vehicle: other 95 % of control | [4] 95 % of control | dose: 200.0 mg/kg/injection, schedule: Q04DX003 (ip), vehicle: other 97 % of control | [5] 104 % of control | dose: 400.0 mg/kg/injection, schedule: Q01DX009 (ip), vehicle: other 95 % of control | [6] 98 % of control | dose: 400.0 mg/kg/injection, schedule: Q04DX003 (ip), vehicle: other 113 % of control

O=C1CNC(=O)N1c1cccc(Cl)c1
inactive: dose: 100.0 mg/kg/injection, schedule: Q04DX003 (ip), vehicle: saline with Tween-80 100 % of control | dose: 200.0 mg/kg/injection, schedule: Q04DX003 (ip), vehicle: saline with Tween-80 100 % of control | dose: 400.0 mg/kg/injection, schedule: Q04DX003 (ip), vehicle: saline with Tween-80 102 % of control

CC(=O)n1c2ccccc2c2nc3cnccc3nc21
inactive: dose: 16.0 mg/kg/injection, schedule: Q01DX005 (ip), vehicle: saline 97 % of control | dose: 32.0 mg/kg/injection, schedule: Q01DX005 (ip), vehicle: saline 97 % of control | dose: 64.0 mg/kg/injection, schedule: Q01DX005 (ip), vehicle: saline 107 % of control

COC(=O)CNC(=O)C(CC(C)C)NC(=O)C(CC(C)C)NC(=O)OC(C)(C)C (stereo not drawn) (Boc-Leu-Leu-Gly-OMe; configuration not given here)
inactive: [7] 106 % of control | [8] 98 % of control | dose: 300.0 mg/kg/injection, schedule: Q01DX001 (ip), vehicle: saline 98 % of control

Cn1c(=O)c2c(nc(OC3CCCC3)n2C)n(C)c1=O
inactive: dose: 50.0 mg/kg/injection, schedule: Q01DX001 (ip), vehicle: other 98 % of control | dose: 100.0 mg/kg/injection, schedule: Q01DX001 (ip), vehicle: other 98 % of control | dose: 200.0 mg/kg/injection, schedule: Q01DX001 (ip), vehicle: other 87 % of control

Cc1ccc(S(=O)(=O)N(N)C(=O)c2ccccc2)cc1
inactive: [7] 86 % of control

OC(c1ccccc1)(c1ccccc1)c1ccccc1
inactive: dose: 9.0 mg/kg/injection, schedule: Q01DX015 (ip), vehicle: saline 95 % of control | dose: 18.0 mg/kg/injection, schedule: Q01DX015 (ip), vehicle: saline 101 % of control | dose: 36.0 mg/kg/injection, schedule: Q01DX015 (ip), vehicle: saline 98 % of control | dose: 50.0 mg/kg/injection, schedule: Q04DX002 (ip), vehicle: Klucel (hydroxypropylcellulose) (HPC) 97 % of control | dose: 72.0 mg/kg/injection, schedule: Q01DX015 (ip), vehicle: saline 98 % of control | dose: 100.0 mg/kg/injection, schedule: Q04DX002 (ip), vehicle: Klucel (hydroxypropylcellulose) (HPC) 95 % of control and 103 % of control | dose: 100.0 mg/kg/injection, schedule: Q04DX002 (ip), vehicle: other 95 % of control | dose: 143.0 mg/kg/injection, schedule: Q01DX015 (ip), vehicle: saline 91 % of control | dose: 200.0 mg/kg/injection, schedule: Q04DX002 (ip), vehicle: Klucel (hydroxypropylcellulose) (HPC) 94 % of control | dose: 200.0 mg/kg/injection, schedule: Q04DX002 (ip), vehicle: other 95 % of control | dose: 286.0 mg/kg/injection, schedule: Q01DX015 (ip), vehicle: saline 89 % of control | dose: 400.0 mg/kg/injection, schedule: Q04DX002 (ip), vehicle: Klucel (hydroxypropylcellulose) (HPC) 103 % of control and 88 % of control | dose: 400.0 mg/kg/injection, schedule: Q04DX002 (ip), vehicle: other 92 % of control | dose: 572.0 mg/kg/injection, schedule: Q01DX015 (ip), vehicle: saline 98 % of control

CC1(C)CCC2(C(=O)OC3OC(CO)C(O)C(O)C3O)CCC3(CO)C(=CCC4C5(C)CC(O)C(O)C(C)(C(=O)OC6OC(CO)C(O)C(O)C6O)C5CCC43C)C2C1 (stereo unspecified)
inactive: dose: 75.0 mg/kg/injection, schedule: Q01DX001 (sc), vehicle: steriod suspending solution 101 % of control | dose: 300.0 mg/kg/injection, schedule: Q01DX001 (sc), vehicle: steriod suspending solution 107 % of control

CCOC(=O)C1C(C#N)C2OC1C(Cl)C2Cl (stereo unspecified)
inactive: [1] 100 % of control | [3] 102 % of control | [5] 94 % of control

O=C(O)c1cccc2c1C(=O)c1cc(Cl)ccc1-2
inactive: [9] 96 % of control | [10] 102 % of control

O=Cc1ccc(-c2ccc([N+](=O)[O-])cc2)o1
inactive: dose: 100.0 mg/kg/injection, schedule: Q01DX001 (ip), vehicle: saline with Tween-80 92 % of control | dose: 200.0 mg/kg/injection, schedule: Q01DX001 (ip), vehicle: saline with Tween-80 94 % of control | dose: 400.0 mg/kg/injection, schedule: Q01DX001 (ip), vehicle: saline with Tween-80 103 % of control

O=[N+]([O-])c1cc2c(c([N+](=O)[O-])c1)OCOC2
inactive: [11] 100 % of control | dose: 200.0 mg/kg/injection, schedule: Q04DX003 (ip), vehicle: saline 97 % of control | dose: 400.0 mg/kg/injection, schedule: Q04DX003 (ip), vehicle: saline 107 % of control

CCOc1ccc2c(ccc(C)[n+]2C)c1
inactive: [9] 108 % of control | [10] 109 % of control

CCCn1c2ccccc2c2ccccc21
inactive: [1] 96 % of control | [3] 97 % of control | [5] 94 % of control

O=C(O)CC1(O)CCCC1
inactive: dose: 25.0 mg/kg/injection, schedule: Q04DX003 (ip), vehicle: saline 100 % of control | dose: 50.0 mg/kg/injection, schedule: Q04DX003 (ip), vehicle: saline 96 % of control | [11] 107 % of control

CCN(CC)CCCC(C)Nc1cc(C)nc(/N=C(\N)Nc2ccc(Cl)c(Cl)c2)n1 (stereo unspecified)
inactive: dose: 25.0 mg/kg/injection, schedule: Q01DX009 (ip), vehicle: Klucel (hydroxypropylcellulose) (HPC) 96 % of control | dose: 50.0 mg/kg/injection, schedule: Q01DX009 (ip), vehicle: Klucel (hydroxypropylcellulose) (HPC) 94 % of control | dose: 100.0 mg/kg/injection, schedule: Q01DX001 (ip), vehicle: Klucel (hydroxypropylcellulose) (HPC) 92 % of control

CC(=O)C1=C(C)NC(C)=C(C(C)=O)C1C
inactive: dose: 55.0 mg/kg/injection, schedule: Q01DX Z (ip), vehicle: saline 97 % of control | dose: 83.0 mg/kg/injection, schedule: Q01DX Z (ip), vehicle: saline 95 % of control | dose: 125.0 mg/kg/injection, schedule: Q01DX Z (ip), vehicle: saline 100 % of control

Cc1c2ccncc2cc2c3ccccc3n(C)c12
inactive: dose: 37.5 mg/kg/injection, schedule: Q04DX003 (ip), vehicle: Klucel (hydroxypropylcellulose) (HPC) 98 % of control | dose: 75.0 mg/kg/injection, schedule: Q04DX003 (ip), vehicle: Klucel (hydroxypropylcellulose) (HPC) 103 % of control | dose: 150.0 mg/kg/injection, schedule: Q04DX003 (ip), vehicle: Klucel (hydroxypropylcellulose) (HPC) 102 % of control | dose: 300.0 mg/kg/injection, schedule: Q04DX003 (ip), vehicle: Klucel (hydroxypropylcellulose) (HPC) 115 % of control

Cc1cc(Br)c(N(C=O)N=O)c(Br)c1
inactive: [7] 101 % of control | [8] 104 % of control

BrCCCC[P+](c1ccccc1)(c1ccccc1)c1ccccc1
inactive: [12] 95 % of control | [13] 106 % of control | dose: 50.0 mg/kg/injection, schedule: Q01DX001 (ip), vehicle: saline 107 % of control | [14] 98 % of control | [15] 110 % of control

CCCCCCCC1CCC(N)CC1 (stereo unspecified)
inactive: [12] 105 % of control | [13] 91 % of control | [14] 100 % of control

NC(=S)N/N=C\c1[nH]c(=O)nc2ccccc12
inactive: [1] 98 % of control | [2] 103 % of control | [3] 92 % of control | [4] 100 % of control | [5] 95 % of control | [6] 97 % of control

CC(=O)Oc1ccc2c(C)cc(=O)oc2c1
inactive: [15] 100 % of control | dose: 200.0 mg/kg/injection, schedule: Q01DX001 (ip), vehicle: saline 109 % of control

COc1cc(OC)c(NC(=O)NCCCl)cc1Cl
inactive: [2] 104 % of control | [4] 106 % of control | [6] 97 % of control
